Active and inactive are the calls of the source.
Experiments:
[1] = biological target: T1, Latent membrane protein 1 (Human herpesvirus 4 (strain B95-8), UniProt P03230); test: LMP1 TES1 pathway selectivity over dsRED control – imaging, HEK293T, dual-color eGFP/dsRED, cherry-picks, selectivity assay for LMP1 NF-kB inhibitor project, dose response (AID 588398); format: functional, cell-based
T1 sequence (P03230 whole entry): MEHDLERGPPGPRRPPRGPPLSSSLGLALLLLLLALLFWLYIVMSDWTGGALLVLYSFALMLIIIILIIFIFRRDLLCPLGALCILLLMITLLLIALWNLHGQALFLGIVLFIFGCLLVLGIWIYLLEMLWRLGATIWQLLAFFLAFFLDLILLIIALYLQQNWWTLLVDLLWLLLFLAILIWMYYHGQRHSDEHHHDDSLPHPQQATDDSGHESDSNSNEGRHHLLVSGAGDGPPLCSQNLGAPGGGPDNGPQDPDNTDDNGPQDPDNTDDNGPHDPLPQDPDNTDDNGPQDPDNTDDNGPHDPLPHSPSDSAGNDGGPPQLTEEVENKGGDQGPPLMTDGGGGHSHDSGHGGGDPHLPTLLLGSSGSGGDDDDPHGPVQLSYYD

[2] = biological target: Cytochrome P450 2D6 (Homo sapiens, UniProt P10635);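 note: CYP2D6 member of a cytochrome P450 panel assay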
Sequence of Cytochrome P450 2D6 (P10635 whole entry): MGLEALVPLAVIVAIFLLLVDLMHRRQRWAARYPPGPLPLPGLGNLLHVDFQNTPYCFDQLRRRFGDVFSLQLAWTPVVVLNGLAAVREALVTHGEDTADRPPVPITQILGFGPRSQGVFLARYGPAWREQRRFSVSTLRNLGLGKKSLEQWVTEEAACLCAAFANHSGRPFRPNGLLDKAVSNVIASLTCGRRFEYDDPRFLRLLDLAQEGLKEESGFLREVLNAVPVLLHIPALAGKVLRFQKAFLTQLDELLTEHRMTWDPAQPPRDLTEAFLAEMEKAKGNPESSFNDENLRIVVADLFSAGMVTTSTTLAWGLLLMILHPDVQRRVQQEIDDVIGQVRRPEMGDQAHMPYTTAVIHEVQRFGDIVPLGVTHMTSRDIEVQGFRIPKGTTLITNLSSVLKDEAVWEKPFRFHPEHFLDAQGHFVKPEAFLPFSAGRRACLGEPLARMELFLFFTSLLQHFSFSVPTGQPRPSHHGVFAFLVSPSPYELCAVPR

[3] = biological target: Cytochrome P450 2C19 (Homo sapiens, UniProt P33261); test: Cytochrome panel assay with activity outcomes. Panel member name: p450-cyp2c19 Compounds with AC50 equal or less than 10 uM are considered active; format: functional; details: read-out: AC50
Sequence of Cytochrome P450 2C19 (P33261 whole entry): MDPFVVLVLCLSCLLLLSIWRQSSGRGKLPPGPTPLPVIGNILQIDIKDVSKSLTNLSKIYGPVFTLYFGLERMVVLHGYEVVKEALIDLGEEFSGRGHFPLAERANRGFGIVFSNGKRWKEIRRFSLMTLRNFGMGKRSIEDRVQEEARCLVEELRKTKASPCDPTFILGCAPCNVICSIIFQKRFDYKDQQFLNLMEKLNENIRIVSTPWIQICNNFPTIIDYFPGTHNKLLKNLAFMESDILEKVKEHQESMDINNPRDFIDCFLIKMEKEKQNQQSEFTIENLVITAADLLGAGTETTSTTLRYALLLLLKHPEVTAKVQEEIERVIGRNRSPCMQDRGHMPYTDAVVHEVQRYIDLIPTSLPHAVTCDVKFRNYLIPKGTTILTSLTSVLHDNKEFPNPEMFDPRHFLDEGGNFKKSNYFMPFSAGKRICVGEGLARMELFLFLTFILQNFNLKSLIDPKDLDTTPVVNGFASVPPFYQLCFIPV

[4] = system: HEK293; test: EBV LMP1 TES2 canonical NF-kB signalling blockers – cell-based, HEK293, luciferase, cherry-pick, dose response (AID 588343); format: functional; details: Homo sapiens
[5] = biological target: T2, Cytochrome P450 1A2 (Homo sapiens, UniProt P05177);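 note: PubChem cytochrome P450 panel assay, CYP1A2 panel member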
T2 sequence (P05177 whole entry): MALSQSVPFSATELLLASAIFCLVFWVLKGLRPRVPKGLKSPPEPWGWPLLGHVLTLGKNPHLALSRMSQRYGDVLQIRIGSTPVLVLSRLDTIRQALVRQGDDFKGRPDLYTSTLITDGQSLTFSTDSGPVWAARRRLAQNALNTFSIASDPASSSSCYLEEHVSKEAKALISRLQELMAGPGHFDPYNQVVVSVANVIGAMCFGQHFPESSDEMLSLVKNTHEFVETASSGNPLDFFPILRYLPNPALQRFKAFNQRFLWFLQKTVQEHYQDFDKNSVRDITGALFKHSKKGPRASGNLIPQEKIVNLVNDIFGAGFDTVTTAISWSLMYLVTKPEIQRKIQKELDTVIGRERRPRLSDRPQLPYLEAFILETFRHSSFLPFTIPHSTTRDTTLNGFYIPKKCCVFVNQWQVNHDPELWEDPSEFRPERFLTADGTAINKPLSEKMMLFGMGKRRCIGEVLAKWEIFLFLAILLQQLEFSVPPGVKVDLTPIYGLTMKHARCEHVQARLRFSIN

[6] = blockers of HIV-1 envelope-mediated cell-cell fusion – cherry-pick, dose response (AID 652057); format: functional, cell-based
[7] = HIV-1 AD8 envelope cell-cell fusion blockers – cherry-pick, dose response (AID 652062); format: functional, cell-based;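 note: luciferase signal from cell-cell fusion driven by HIV-1 clade B AD8 Env; potency is for inhibitors of fusion seen as a drop in luminescence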
[8] = biological target: Protein Wnt-3a (Mus musculus, UniProt P27467); test: antagonism of Wnt3a pathway luciferase reporter – Wnt-LIGHT cells, luminescence, selectivity assay for Gli-SUFU antagonist project, dose response (AID 651570); format: functional; details: read-out: IC50_Mean;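 note: Wnt-LIGHT reporter cells stimulated with conditioned medium from Wnt3a-producing cells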
Sequence of Protein Wnt-3a (P27467 whole entry): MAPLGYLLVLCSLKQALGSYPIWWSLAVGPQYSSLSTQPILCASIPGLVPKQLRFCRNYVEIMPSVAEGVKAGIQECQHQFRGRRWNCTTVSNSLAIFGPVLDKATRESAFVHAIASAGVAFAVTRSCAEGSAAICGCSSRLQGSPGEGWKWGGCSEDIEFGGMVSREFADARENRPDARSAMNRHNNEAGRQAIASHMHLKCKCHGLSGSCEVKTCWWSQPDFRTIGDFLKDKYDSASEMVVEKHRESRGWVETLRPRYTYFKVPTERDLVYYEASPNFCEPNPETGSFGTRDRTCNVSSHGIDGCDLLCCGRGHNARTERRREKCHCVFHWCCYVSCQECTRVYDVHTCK

[9] = biological target: T3, Histone-lysine N-methyltransferase NSD2 (Homo sapiens, UniProt O96028); format: biochemical
T3 sequence (O96028 whole entry): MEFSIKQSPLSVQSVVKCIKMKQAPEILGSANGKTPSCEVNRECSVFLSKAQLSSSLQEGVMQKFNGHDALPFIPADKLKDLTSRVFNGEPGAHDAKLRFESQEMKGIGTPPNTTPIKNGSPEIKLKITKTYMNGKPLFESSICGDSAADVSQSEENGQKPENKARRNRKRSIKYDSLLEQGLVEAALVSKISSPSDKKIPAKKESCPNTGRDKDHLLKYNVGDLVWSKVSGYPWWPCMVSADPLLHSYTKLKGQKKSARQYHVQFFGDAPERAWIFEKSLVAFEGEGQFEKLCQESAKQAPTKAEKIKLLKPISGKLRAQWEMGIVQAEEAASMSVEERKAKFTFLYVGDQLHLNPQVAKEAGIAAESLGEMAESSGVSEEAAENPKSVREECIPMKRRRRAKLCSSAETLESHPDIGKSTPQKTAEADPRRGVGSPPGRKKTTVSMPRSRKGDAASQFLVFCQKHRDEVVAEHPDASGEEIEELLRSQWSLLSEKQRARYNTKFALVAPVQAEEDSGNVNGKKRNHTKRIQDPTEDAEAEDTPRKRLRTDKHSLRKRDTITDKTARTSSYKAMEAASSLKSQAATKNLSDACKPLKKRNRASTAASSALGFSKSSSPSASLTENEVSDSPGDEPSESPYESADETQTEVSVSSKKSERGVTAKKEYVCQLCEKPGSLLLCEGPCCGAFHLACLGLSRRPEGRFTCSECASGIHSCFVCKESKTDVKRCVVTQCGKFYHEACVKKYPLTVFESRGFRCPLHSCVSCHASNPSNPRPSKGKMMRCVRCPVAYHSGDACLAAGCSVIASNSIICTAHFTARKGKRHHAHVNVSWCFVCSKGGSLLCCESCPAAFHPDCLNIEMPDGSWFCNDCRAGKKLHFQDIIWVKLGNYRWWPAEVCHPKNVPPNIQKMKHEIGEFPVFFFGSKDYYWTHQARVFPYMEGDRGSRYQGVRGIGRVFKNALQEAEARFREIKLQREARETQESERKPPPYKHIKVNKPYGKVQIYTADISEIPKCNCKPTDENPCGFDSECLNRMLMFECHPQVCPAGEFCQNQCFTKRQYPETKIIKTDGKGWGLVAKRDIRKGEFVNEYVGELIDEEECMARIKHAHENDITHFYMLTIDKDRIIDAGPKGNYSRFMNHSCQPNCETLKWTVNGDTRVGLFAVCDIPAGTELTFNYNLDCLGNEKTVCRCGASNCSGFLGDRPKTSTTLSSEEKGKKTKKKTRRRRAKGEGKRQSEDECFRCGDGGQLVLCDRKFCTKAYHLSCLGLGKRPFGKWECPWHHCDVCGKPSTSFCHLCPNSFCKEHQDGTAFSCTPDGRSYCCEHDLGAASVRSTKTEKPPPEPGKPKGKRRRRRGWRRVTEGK

[10] = biological target: Steroidogenic factor 1 (Homo sapiens, UniProt Q13285); test: Counterscreen for inverse agonists of the liver receptor homolog-1 (LRH-1; NR5A2): Luminescence-based cell-based high throughput dose response assay to identify inverse agonists of the Steroidogenic Factor 1 Nuclear Receptor (SF1; NR5A1).; format: functional
Sequence of Steroidogenic factor 1 (Q13285 whole entry): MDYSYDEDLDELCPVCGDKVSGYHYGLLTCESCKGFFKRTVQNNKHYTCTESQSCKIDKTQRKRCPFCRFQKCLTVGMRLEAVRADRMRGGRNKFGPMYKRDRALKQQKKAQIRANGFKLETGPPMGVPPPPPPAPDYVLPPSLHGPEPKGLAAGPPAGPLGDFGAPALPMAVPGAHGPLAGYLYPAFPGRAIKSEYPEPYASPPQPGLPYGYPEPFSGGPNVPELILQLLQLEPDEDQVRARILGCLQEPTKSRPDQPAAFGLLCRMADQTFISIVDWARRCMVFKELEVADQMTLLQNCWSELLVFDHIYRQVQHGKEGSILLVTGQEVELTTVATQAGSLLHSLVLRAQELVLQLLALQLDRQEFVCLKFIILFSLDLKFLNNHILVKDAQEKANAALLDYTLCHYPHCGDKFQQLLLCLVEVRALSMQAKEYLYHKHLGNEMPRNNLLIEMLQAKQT

[11] = biological target: Nuclear receptor subfamily 5 group A member 2 (Homo sapiens, UniProt O00482); format: functional, cell-based;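 note: HEK293T cells transfected with LRH-1 and a StAR promoter luciferase reporter; potency for inhibitors that lower LRH-1 driven reporter light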
Sequence of Nuclear receptor subfamily 5 group A member 2 (O00482 whole entry): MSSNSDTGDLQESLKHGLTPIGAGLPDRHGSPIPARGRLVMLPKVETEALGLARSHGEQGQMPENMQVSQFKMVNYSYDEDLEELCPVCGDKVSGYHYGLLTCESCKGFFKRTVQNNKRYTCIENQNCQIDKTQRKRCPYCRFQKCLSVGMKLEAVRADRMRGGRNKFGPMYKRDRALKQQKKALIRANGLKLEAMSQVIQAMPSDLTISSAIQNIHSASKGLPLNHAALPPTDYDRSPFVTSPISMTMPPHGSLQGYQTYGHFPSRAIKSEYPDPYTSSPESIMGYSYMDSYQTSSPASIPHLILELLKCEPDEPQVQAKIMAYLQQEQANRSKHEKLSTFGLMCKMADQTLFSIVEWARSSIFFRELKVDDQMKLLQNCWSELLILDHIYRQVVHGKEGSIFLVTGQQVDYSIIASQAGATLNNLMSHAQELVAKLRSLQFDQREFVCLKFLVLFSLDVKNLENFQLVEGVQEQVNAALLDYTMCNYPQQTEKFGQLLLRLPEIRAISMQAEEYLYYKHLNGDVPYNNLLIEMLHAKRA

[12] = nonselective StAR promoter luciferase inhibitors – cell-based, luminescence, luciferase reporter, counter-screen for LRH-1 inverse agonist project, dose response (AID 651969); format: functional
[13] = biological target: Mitochondrial peptide methionine sulfoxide reductase (Bos taurus, UniProt P54149); format: functional;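 note: absorbance read-out, biochemical high-throughput dose-response screen for MsrA inhibitors, confirmatory; recombinant bovine MsrA coupled to E. coli TrxB with NADPH and selenocystamine; potency is for inhibitors of MsrA activity on DMSO substrate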
Sequence of Mitochondrial peptide methionine sulfoxide reductase (P54149 whole entry): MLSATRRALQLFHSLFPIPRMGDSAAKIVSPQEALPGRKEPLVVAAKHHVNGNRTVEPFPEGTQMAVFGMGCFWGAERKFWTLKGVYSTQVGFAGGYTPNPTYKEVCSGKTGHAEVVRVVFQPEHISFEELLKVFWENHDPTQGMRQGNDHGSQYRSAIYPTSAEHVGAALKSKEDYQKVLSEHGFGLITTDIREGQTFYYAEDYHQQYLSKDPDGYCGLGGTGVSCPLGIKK

[14] = biological target: Adenosylmethionine-8-amino-7-oxononanoate aminotransferase (Mycobacterium tuberculosis, UniProt P9WQ81); test: Mycobacterium tuberculosis BioA enzyme inhibitor Measured in Biochemical System Using Plate Reader - 2163-02_Inhibitor_Dose_CherryPick_Activity.; format: functional, Mycobacterium tuberculosis UT205
Sequence of Adenosylmethionine-8-amino-7-oxononanoate aminotransferase (P9WQ81 whole entry): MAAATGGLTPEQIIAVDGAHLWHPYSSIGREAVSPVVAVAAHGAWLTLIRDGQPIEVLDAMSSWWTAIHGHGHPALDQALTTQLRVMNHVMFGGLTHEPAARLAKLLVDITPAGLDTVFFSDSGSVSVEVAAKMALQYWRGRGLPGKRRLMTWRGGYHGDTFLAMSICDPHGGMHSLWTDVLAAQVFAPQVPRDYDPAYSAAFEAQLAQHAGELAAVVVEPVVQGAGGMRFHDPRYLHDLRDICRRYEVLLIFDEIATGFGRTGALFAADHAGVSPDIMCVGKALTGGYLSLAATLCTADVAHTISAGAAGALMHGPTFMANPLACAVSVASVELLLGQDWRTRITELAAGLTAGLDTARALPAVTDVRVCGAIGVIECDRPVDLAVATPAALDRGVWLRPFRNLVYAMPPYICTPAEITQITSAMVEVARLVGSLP

COc1ccc(S(=O)(=O)NNC(=O)C2Cc3c(ccc4ccccc34)O2)cc1 (stereo not given)
AC50 [1]: 74.8 µM (active) | AC50 [2]: 39.8 µM (inconclusive) | AC50 [3]: 5.62 µM (inconclusive) | AC50 [4]: > 350 µM (inactive) | AC50 [5]: 25.1 µM (inconclusive) | AC50 [6]: 43.7 µM (active) | AC50 [7]: 13.2 µM (active)

CCN1CCCC1CNc1[nH]cnc2c3cc(Cl)ccc3nc1-2 (stereo not given)
IC50 [8]: 50 µM (inactive) | AC50 [9]: > 20 µM (inactive)

O=C(NCC1CCCO1)c1ccc(NC(=O)c2cccc([N+](=O)[O-])c2)cc1 (stereo not given)
IC50 [10]: 1.32 µM (active) | IC50 [11]: 3.99 µM (active) | IC50 [12]: 35.9 µM (inactive)

CCOC(=O)/C(C#N)=C/C(C(=N)N1CCN(c2ccc(OC)cc2)CC1)=C(/O)OCC
IC50 [13]: 139 µM (inactive)

COc1ccc(Nc2c(-c3ccc(OC)cc3)nc3cnccn23)cc1
AC50 [14]: 1.34 µM (active)

COc1ccc(Cn2ccc(=O)c(Cc3c(Cl)cccc3Cl)c2C)cc1
AC50 [14]: 7.22 µM (active)
